Measurements from US8575189B2, “Tacrolimus preparation for external applications” (Takata Seiyaku Co., Ltd., priority 2008, dated 2013).

Experiment: Solubility of tacrolimus in triacetin
Type: physicochemical
Conditions: free form, in triacetin at 25° C.
Description: [drawing 2] (chemical name: glycerin triacetate). The properties of triacetin are described in Iyakuhin Tenkabutsu Kikaku 2003 and Iyakuhin Tenkabutsu Jiten 2007 (Yakuji Nippo), which are incorporated herein by reference. Tacrolimus in a free form may dissolve in triacetin at 25° C. in the ratio of about 12.5 g/100 g. Preferably, the external preparation of the present invention comprises triacetin at 0.1 to 30% by weight, more preferably 1.0 to 20% by weight, still more preferably 3.0 to 6.0% by weight, most preferably 4.0 to 5.0% by weight for the total amount of the preparation.

Substance: 17-aryl-1,14-dihydroxy-12-[2-(4-hydroxy-3-methoxycyclohexyl)-1-methylbinyl]-23,25-dimethoxy-13,19,21,27-tetramethyl-11,28-dioxa-4-azatricyclo [22.3.1.04, 9] octacos-18-en-2,3,10,16-tetraone [Tacrolimus]
- dissolve in triacetin (ratio): about 12.5 g/100 g
